# In US20260337190A1, “CRYSTAL FORM OF PYRIDINOPYRIMIDINONE COMPOUND, ACID SALT THEREOF, CRYSTAL FORM OF ACID SALT THEREOF, AND USE” (Wuhan Humanwell Innovative Drug Research and Development …, priority 2022, published 2026):
# What was measured:
# [1] = target: T1, KRAS G12C-SOS1 (Homo sapiens, UniProt Q07889); test: Inhibition of KRAS G12C::SOS1 binding; conditions: summary statement
# T1 sequence (Q07889 1-1333): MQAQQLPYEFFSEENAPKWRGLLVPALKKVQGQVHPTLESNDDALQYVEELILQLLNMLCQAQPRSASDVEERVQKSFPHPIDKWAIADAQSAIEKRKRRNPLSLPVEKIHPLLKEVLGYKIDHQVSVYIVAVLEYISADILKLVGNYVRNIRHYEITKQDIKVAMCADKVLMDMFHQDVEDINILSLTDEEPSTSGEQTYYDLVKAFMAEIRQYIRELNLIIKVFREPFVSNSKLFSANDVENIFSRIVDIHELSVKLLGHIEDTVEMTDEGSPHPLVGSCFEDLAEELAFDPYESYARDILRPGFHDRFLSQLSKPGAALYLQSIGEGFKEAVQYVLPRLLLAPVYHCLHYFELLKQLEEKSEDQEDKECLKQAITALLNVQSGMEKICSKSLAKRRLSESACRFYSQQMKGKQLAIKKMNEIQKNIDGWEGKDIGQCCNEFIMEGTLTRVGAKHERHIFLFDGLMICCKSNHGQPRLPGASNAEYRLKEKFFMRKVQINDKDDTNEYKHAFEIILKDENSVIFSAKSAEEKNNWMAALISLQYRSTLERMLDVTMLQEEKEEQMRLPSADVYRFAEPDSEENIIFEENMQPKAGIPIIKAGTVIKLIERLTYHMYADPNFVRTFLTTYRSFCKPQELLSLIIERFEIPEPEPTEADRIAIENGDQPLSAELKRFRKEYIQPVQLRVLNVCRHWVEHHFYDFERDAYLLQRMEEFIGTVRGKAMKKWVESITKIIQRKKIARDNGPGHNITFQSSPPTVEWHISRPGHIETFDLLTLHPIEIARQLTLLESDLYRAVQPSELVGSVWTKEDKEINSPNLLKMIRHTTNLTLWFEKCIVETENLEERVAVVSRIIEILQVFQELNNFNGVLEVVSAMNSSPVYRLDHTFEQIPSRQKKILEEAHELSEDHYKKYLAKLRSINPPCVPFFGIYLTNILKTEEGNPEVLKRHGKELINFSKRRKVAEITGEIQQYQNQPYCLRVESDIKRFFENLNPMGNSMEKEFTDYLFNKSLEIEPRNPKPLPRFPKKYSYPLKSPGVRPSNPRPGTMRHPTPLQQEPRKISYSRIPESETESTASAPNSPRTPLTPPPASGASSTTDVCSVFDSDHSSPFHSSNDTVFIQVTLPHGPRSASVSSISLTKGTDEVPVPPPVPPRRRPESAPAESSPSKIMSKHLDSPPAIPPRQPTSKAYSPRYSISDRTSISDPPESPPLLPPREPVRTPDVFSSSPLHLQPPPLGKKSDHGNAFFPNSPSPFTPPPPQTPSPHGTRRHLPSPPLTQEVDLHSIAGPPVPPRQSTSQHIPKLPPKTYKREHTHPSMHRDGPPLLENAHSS
# [2] = tested on: ERK phosphorylation level in DLD-1 cells; test: Inhibition of ERK phosphorylation level in DLD-1 cells (intracellular western blot); assay type: cell-based; conditions: summary statement
# Method: Intracellular western blot quantitative analysis was used to detect the inhibitory level of compounds on ERK phosphorylation in DLD-1 cells.
# DLD-1 cells (ATCC, CCL-221) were seeded in a T75 culture flask at 2.5×10^6 cells/flask, and cultured in a RPMI 1640 medium containing 10% FBS for 2 days. On day 3, the cells were seeded on a 384-well plate, and cultured overnight at 37 °C, 5% CO2. After overnight culture, the plate was added with serially diluted compounds (the final content of DMSO was 0.5%), the negative group was added with DMSO, and incubated in a 37 °C, 5% CO2 incubator.
# The cells were fixed, washed once with PBS, treated to disrupt membranes, and blocked at room temperature for 1 h. The blocking solution was removed. The plate was added with primary antibody (CST, Cat. No. #4370S), and incubated overnight at 4 °C The plate was washed 3 times with PBST (PBS solution added with 0.05% Tween-20), and soaked for 2 min each time. The plate was added with secondary antibody (LI-COR, Cat. No. 926-32211), and incubated at room temperature in the dark. The plate was washed 3 times with PBST, and soaked for 2 min each time.
# The plate was centrifuged at 1000 rpm for 1 min, scanned on a two-color infrared laser imaging system (Odyssey® CLX) to read the signal.
# Relative signal=800-channel signal values/700-channel signal values. […]
# IC50 values were calculated using Graphpad 5 software.
# [3] = tested on: LOVO tumor; test: In vivo efficacy on LOVO colorectal cancer; parameters: species or system mice
# Method: After one week of adaptive feeding of mice, LOVO cells in a logarithmic phase were resuspended in serum-free F12K, 5×10^6 LOVO cells were inoculated subcutaneously at the right flank at 100 μL per mouse, and tumor growth was observed regularly. When the tumor grew to an average volume of 150 to 200 mm^3, the mice were randomly divided into a model group and an administration group based on the tumor size and body weight. The tumor size and body weight were measured and recorded before and during the administration. After the treatment, the tumor size in the model group was compared with that in the administration group to determine the efficacy.
smiles,measurement,setting,value
"Cc1nc(N[C@H](C)c2cccc(S(F)(F)(F)(F)F)c2)c2cn(C3(CF)CC3)c(=O)cc2n1 [compound of formula I, (R)-6-(1-(fluoromethyl)cyclopropyl)-2-methyl-4-((1-(3-(pentafluorosulfanyl)phenyl)ethyl)amino)pyrido[4,3-d]pyrimidin-7(6H)-one]",inhibitory effect on KRAS G12C::SOS1 binding,[1],significant inhibitory effect
same,inhibitory effect on the ERK phosphorylation level in DLD-1 cells,[2],significant inhibitory effect
same,inhibitory effect on LOVO tumor tissue growth vs control compound II,[3]; comparison with control compound II,better than that of the control compound II
same,inhibitory effect on LOVO tumor tissue growth,"[3]; mouse, in vivo",significant inhibitory effect
